“Also recorded” adds a separate entry of the source.
Tests used:
[1] = Dissolving tests with ERr 731® in ethanol and glycerol; type: physicochemical
[2] = In vivo accumulation of ERr 731® ingredients in dog plasma (100, 300, 1000 mg/kg/day); parameters: species or system dog (pure-bred beagles); conditions: male and female dogs, ERr 731® 100, 300, 1000 mg/kg body weight/day, day 1
Protocol: (§1) These plasma samples were processed as follows: 500 μl of plasma were mixed with 25 μl of an internal standard working solution (2.5 ng/μl rhaponticin or rhapontigenin in methanol) and then mixed with 500 μl of isotonic NaCl solution and 2.5 ml of diethyl ether/butanol (9/1; v/v). After shaking and centrifugation (10 minutes at 4600 rpm), about 2 ml of the supernatant were removed and dried under a stream of nitrogen (at 60° C.). The pellet was taken up in 50 μl of methanol. Addition of 200 μl of distilled water was followed by renewed mixing, and 200 μl were pipetted into autosampler tubes (light-protected). 30 μl of the samples were injected for analysis into an LC-MS/MS system (PE Sciex API 3000). Chromatographic separation of the analytes took place on a Phenomenex Polymer X column with a gradient of an ammonium buffer solution and an acetonitrile/methanol mixture as mobile phase.
On day 1, 5 ml of blood were taken from the animals after 0, 0.5, 1, 2, 4, 8 and 24 hours in each case, and plasma was obtained. The analysis as described in section a) was carried out thereon in order to detect rhaponticin, deoxyrhaponticin, rhapontigenin, deoxyrhapontigenin, resveratrol and piceatannol in blood. The results of the test are depicted in FIG. 2a.

[3] = target: T1, estrogen receptor β (ERβ) (Homo sapiens, UniProt Q92731); assay: ERβ/mC3-luciferase transactivation in transfected HEC-1B cells; type: cell-based; conditions: HEC-1B cells cotransfected with hERβ and mC3-Luc, 24 hours incubation
T1 construct: expressed in transfected cells; host or cells: HEC-1B human endometrial adenocarcinoma cells (no endogenous ERα or ERβ)
T1 sequence (Q92731 whole entry): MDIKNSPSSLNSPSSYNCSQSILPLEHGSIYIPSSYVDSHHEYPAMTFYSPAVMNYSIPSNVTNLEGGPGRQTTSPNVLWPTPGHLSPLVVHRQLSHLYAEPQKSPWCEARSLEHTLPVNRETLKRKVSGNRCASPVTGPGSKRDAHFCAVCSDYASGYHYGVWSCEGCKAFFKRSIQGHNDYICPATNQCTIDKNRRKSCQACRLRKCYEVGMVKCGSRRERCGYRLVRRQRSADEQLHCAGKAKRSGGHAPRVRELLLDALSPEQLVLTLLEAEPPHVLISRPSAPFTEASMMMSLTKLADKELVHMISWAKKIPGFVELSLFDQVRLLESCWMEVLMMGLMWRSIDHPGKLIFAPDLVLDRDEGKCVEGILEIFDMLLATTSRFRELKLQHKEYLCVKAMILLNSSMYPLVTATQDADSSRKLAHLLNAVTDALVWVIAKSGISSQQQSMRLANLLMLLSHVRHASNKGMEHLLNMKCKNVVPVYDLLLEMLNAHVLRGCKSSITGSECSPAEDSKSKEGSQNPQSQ
From the text: They therefore represent a possible way of investigating, in a human and endometrial context, ligand-dependent effects of substances on the transactivation mechanisms in relation to different receptor subtypes and different estrogen-responsive promoters.
An established ERβ/mC3-luciferase system was employed. For this purpose, HEC-1B cells were applied in 24-well plates with a density of 95 000 cells/well (in Dulbecco's modified Essential Medium (DMEM/F12)). The next day, they were cotransfected with an ERβ-containing construct (hERβ/pSG2) and a triple-ERE-containing promoter/luciferase construct (mC3-Luc/pGL2) (Hillisch et al. Dissecting physiological roles of estrogen receptor alpha and beta with potent selective ligands from structure-based design. Mol. Endocrinol. 2004 July; 18:1599-609). The transient transfection took place using DOTAP (N-[1-(2,3-dioleoyloxy)]-N,N,N-trimethylammoniumpropane methylsulfate, Roth) as described by the manufacturer.
After 24 hours, the cells were treated with appropriate concentrations of the substances or substance mixtures to be investigated. […] The incubation time was 24 hours. The cells were then lysed. The Luciferase Assay® kit (Promega) was used to determine the luciferase activity on the one hand, and the BCA® kit (Sigma) was used to determine the protein content on the other hand. […]

[4] = system: transcription factor NF-κB; conditions: cited from earlier work
[5] = system: HL60 leukemia cells; conditions: cited from earlier work
[6] = system: hormone-sensitive and -insensitive prostate cancer cells; conditions: pure resveratrol; cited from earlier work
[7] = system: AR-dependent gene expression; conditions: depending on the concentration; cited from earlier work
[8] = Pharmacokinetics of ERr 731® ingredients in subject after oral intake (plasma, LC-MS/MS); type: in vivo, human; conditions: volunteer
Protocol: Subsequently, 10 ml of blood was taken at various times (as indicated in FIG. 1) and the plasma was obtained by centrifugation.
as §1

[9] = system: bacteria of the human intestinal tract; conditions: cited from earlier work
[10] = Test A: 200 mg of dry extract in 50 ml of glycerol R
[11] = Test B: 200 mg of dry extract in 50 ml of ethanol 30% R
[12] = Test C: 200 mg of dry extract in 50 ml of ethanol 50% R
[13] = Test D: 200 mg of dry extract in 50 ml of ethanol 86% R

| Compound | content found dissolved [1, 10] | dissolved, of theory [1, 10] | content found dissolved [1, 11] | dissolved, of theory [1, 11] | content found dissolved [1, 12] | dissolved, of theory [1, 12] | content found dissolved [1, 13] | dissolved, of theory [1, 13] | accumulation (AUC 0-24 h) in dog plasma [2] | effect on transcription factor NF-κB [4] | also measured |
| --- | --- | --- | --- | --- | --- | --- | --- | --- | --- | --- | --- |
| COc1ccc(C=Cc2cc(O)cc(O[C@@H]3O[C@H](CO)[C@@H](O)[C@H](O)[C@H]3O)c2)cc1 [deoxyrhaponticin] | 27.1% deoxyrhaponticin | (90.6% of theory) | 25.2% deoxyrhaponticin | (84.2% of theory) | 29.0% deoxyrhaponticin | (97.0% of theory) | 29.5% deoxyrhaponticin | (98.7% of theory) | dose-dependent accumulation | – | – |
| COc1ccc(C=Cc2cccc(O)c2)cc1O [deoxyrhapontigenin, 3′,5-Dihydroxy-4′-methoxystilbene] | – | – | – | – | – | – | – | – | undetectable | – | activation of ERβ (relative luciferase activity vs DMSO control) [3]: activate the ERβ dose-dependently; also recorded: effective only at higher concentrations |
| Oc1cc(O)cc(/C=C/c2ccc(O)c(O)c2)c1 [piceatannol] | – | – | – | – | – | – | – | – | – | inhibitory effect | – |
| Oc1ccc(C=Cc2cc(O)cc(O)c2)cc1 [resveratrol] | – | – | – | – | – | – | – | – | – | – | apoptotic effect on HL60 leukemia cells [5]: apoptotic effect; apoptotic effect on prostate cancer cells [6]: apoptotic effect; AR-dependent gene expression [7]: an increase or inhibition of AR-dependent gene expression was observed |
| COc1ccc(C=Cc2cc(O)cc(O[C@@H]3O[C@H](CO)[C@@H](O)[C@H](O)[C@H]3O)c2)cc1O [rhaponticin, 3,3′,5-Trihydroxy-4′-methoxystilbene 3-O-β-D-glucopyranoside] | 55.1% rhaponticin | (89.0% of theory) | 52.2% rhaponticin | (84.3% of theory) | 58.8% rhaponticin | (95.0% of theory) | 59.8% rhaponticin | (96.6% of theory) | dose-dependent accumulation | inactive | time of maximum in the blood ([8]; oral 40 mg ERr 731®): 3 to 4 h; detection in the blood (plasma) ([8]; oral 10 tablets = 40 mg ERr 731®): detected in the blood; degradation by intestinal bacteria [9]: degraded by bacteria of the human intestinal tract to rhapontigenin |

Reference: patent US8268792B2, “Use of an active ingredient combination that contains hydroxystilbene for preventing and/or treating diseases” (Carl-Friedrich Spaich, priority 2005, dated 2012)
